# Data published in patent US10603289B2, “Process for the manufacture of ajoene derivatives” (DANMARKS TEKNISKE UNIVERSITET, priority 2010, dated 2020).
# Legend:
# wild-type P. aeruginosa = experiment: Foreign-body (silicone tube implant) infection model; type: in vivo, mice
# Protocol: To examine the effect of a combination treatment with ajoene and tobramycin in vivo we used an foreign-body infection model [L. D. Christensen et al., Microbiology, 2007, 153, p. 2312-2320]. Silicone tube implants with a size of 4 mm (inner diameter 4 mm/outer diameter 6 mm) pre-colonized with wild-type P. aeruginosa, were inserted into the peritoneal cavity of mice. Treatments were injected subcutaneously every 24 hours, where ajoene and tobramycin treatment were initiated two days pre-insertion and 24 hours post-insertion, respectively. 72 hours after insertion the implants were removed from the mice and the number of colony-forming units per implant was determined. […] (E,Z) ajoene having an E:Z ratio of 1:4 was used.
# [1] = Biological activity after further purification, assays as described in the examples; conditions: after column chromatography further purified, e.g. reverse phase HPLC; or isolated pure isomers
# Excerpt: The purity of (E,Z)-ajoene after the above procedure may be 95-99.5%, such as 97-99.5%, 98-99.5%, 99-99.5% such as about 99.5%. […] This was also found when isolating pure (E)-ajoene and/or pure (Z)-ajoene, e.g. using HPLC. It is speculated that small amounts of ajoene derived chemistry, i.e. compounds related to ajoene, such as less than 5%, 3%, 2%, 1%, such as less than 0.5% may be highly important in the stabilisation of (E,Z)-ajoene and derivatives, towards degradation, e.g. oxidation, reduction and or cleavage, both in vitro but importantly also in vivo.
# Gram negative bacteria = conditions: E:Z=1:4 isomer used; cited from earlier work
# [2] = system: biofilms of P. aeruginosa PAO1; experiment: In vitro flow cell biofilm killing, live dead stains and CSLM; type: cell-based; conditions: tobramycin or ajoene only
# Protocol: Dead cells are stained with the DNA stain PI (Dark grey/black). The biofilm were visualized with CSLM. C) Implant model treated with ajoene and tobramycin.
# 3873-3880]. It was however unknown what was the active ingredient in the garlic extract. Thus. biofilms of P. aeruginosa strain were either grown in the presence or absence of 100 μg/ml ajoene. At day three the biofilms were treated with 10 μg/ml tobramycin for 24 hours. […] 10 μg/ml tobramycin was therefore chosen for the present study.
# PA4175 prpL = experiment: DNA microarray, gene expression in ajoene treated P. aeruginosa cultures; type: cell-based; conditions: E:Z 1:4, OD600 2.0
# Protocol: (§1) DNA microarray analysis was used to identify genes regulated by ajoene treatment. As a reference we have used the QS regulon previously identified by Hentzer et al., [M. Hentzer et al., EMBO J., 2003, 22, p. […] Exponential growing P. aeruginosa cultures were treated with the following four concentrations of ajoene; 10 μg/ml (42.7 μM), 20 μg/ml (85.4 μM), 40 μg/ml (170.8 μM) and 80 μg/ml (341.6 μM). (E,Z) ajoene having an E:Z ratio of 1:4 was used. […] The samples were retrieved at an OD600 nm of 2.0 (optical density) because previous investigations have shown the highest activity among the QS genes at that cell density. Gene expression of the treated cultures was compared to an untreated control.
# PA0852 cbpD = experiment: as above; type: cell-based; conditions: E:Z 1:4, OD600 2.0
# Protocol: as §1
# PA4142 = experiment: as above; type: cell-based; conditions: E:Z 1:4, OD600 2.0
# Protocol: as §1
# PA3479 rhlA = experiment: as above; type: cell-based; conditions: E:Z 1:4, OD600 2.0
# Protocol: as §1
# PA3478 rhlB = experiment: as above; type: cell-based; conditions: E:Z 1:4, OD600 2.0
# Protocol: as §1
# PA2069 = experiment: as above; type: cell-based; conditions: E:Z 1:4, OD600 2.0
# Protocol: as §1
# PA2300 chic = experiment: as above; type: cell-based; conditions: E:Z 1:4, OD600 2.0
# Protocol: as §1
# PA4141 = experiment: as above; type: cell-based; conditions: E:Z 1:4, OD600 2.0
# Protocol: as §1
# PA2570 pa1L = experiment: as above; type: cell-based; conditions: pa1L PA2570 (LecA), E:Z 1:4, OD600 2.0
# Protocol: as §1
# lasB = experiment: as above; type: cell-based; conditions: ajoene 10-80 μg/ml
# Protocol: as §1
# PA2146 = experiment: as above; type: cell-based; conditions: E:Z 1:4, OD600 2.0
# Protocol: as §1
# PA1871 lasA = experiment: as above; type: cell-based; conditions: E:Z 1:4, OD600 2.0
# Protocol: as §1
# P. aeruginosa cultures = experiment: Growth inhibitory effect on exponential growing cultures; type: cell-based; conditions: 10, 20, 40 and 80 μg/ml ajoene; E:Z 1:4
# Protocol: as §1
# Gram positive bacteria = conditions: E:Z=1:4 isomer used; cited from earlier work
smiles,measurement,setting,value
"C=CCSSC=CC[S+]([O-])CC=C (stereo not shown) [ajoene, (E,Z)-4,5,9-trithiadodeca-1,6,11-triene-9-oxide]","clearing of implants, single treatment versus placebo group",wild-type P. aeruginosa; CFU per implant 72 hours after insertion,significant difference in clearing
same,"clearing of implants, between the two single treatment groups",wild-type P. aeruginosa; ajoene versus tobramycin,no significant difference in clearing
same,biological activity after further purification,[1],lost all or parts of its biological activity
same,inhibitory effect on Gram negative bacteria,Gram negative bacteria,varied inhibitory effect
same,"killing of the biofilm bacteria, single agent",[2],no or only minor killing
same,fold change in gene expression compared to an untreated control,PA4175 prpL; [Ajoene] 10 μg/ml,−3.7 fold
same,fold change in gene expression compared to an untreated control,PA4175 prpL; [Ajoene] 20 μg/ml,−3.3 fold
same,fold change in gene expression compared to an untreated control,PA4175 prpL; [Ajoene] 40 μg/ml,−5.3 fold
same,fold change in gene expression compared to an untreated control,PA4175 prpL; [Ajoene] 80 μg/ml,−6.8 fold
same,fold change in gene expression compared to an untreated control,PA0852 cbpD; [Ajoene] 10 μg/ml,−2.8 fold
same,fold change in gene expression compared to an untreated control,PA0852 cbpD; [Ajoene] 20 μg/ml,−2.5 fold
same,fold change in gene expression compared to an untreated control,PA0852 cbpD; [Ajoene] 40 μg/ml,−3.9 fold
same,fold change in gene expression compared to an untreated control,PA0852 cbpD; [Ajoene] 80 μg/ml,−6.9 fold
same,fold change in gene expression compared to an untreated control,PA4142; [Ajoene] 10 μg/ml,−2.0 fold
same,fold change in gene expression compared to an untreated control,PA4142; [Ajoene] 20 μg/ml,−2.2 fold
same,fold change in gene expression compared to an untreated control,PA4142; [Ajoene] 40 μg/ml,−2.7 fold
same,fold change in gene expression compared to an untreated control,PA4142; [Ajoene] 80 μg/ml,−5.1 fold
same,fold change in gene expression compared to an untreated control,PA3479 rhlA; [Ajoene] 10 μg/ml,−2.2 fold
same,fold change in gene expression compared to an untreated control,PA3479 rhlA; [Ajoene] 20 μg/ml,−1.5 fold
same,fold change in gene expression compared to an untreated control,PA3479 rhlA; [Ajoene] 40 μg/ml,−2.6 fold
same,fold change in gene expression compared to an untreated control,PA3479 rhlA; [Ajoene] 80 μg/ml,−8.8 fold
same,fold change in gene expression compared to an untreated control,PA3478 rhlB; [Ajoene] 10 μg/ml,−2.6 fold
same,fold change in gene expression compared to an untreated control,PA3478 rhlB; [Ajoene] 20 μg/ml,−2.0 fold
same,fold change in gene expression compared to an untreated control,PA3478 rhlB; [Ajoene] 40 μg/ml,−3.3 fold
same,fold change in gene expression compared to an untreated control,PA3478 rhlB; [Ajoene] 80 μg/ml,−8.7 fold
same,fold change in gene expression compared to an untreated control,PA2069; [Ajoene] 10 μg/ml,−2.3 fold
same,fold change in gene expression compared to an untreated control,PA2069; [Ajoene] 20 μg/ml,−2.4 fold
same,fold change in gene expression compared to an untreated control,PA2069; [Ajoene] 40 μg/ml,−4.0 fold
same,fold change in gene expression compared to an untreated control,PA2069; [Ajoene] 80 μg/ml,−5.3 fold
same,fold change in gene expression compared to an untreated control,PA2300 chic; [Ajoene] 10 μg/ml,−2.5 fold
same,fold change in gene expression compared to an untreated control,PA2300 chic; [Ajoene] 20 μg/ml,−2.1 fold
same,fold change in gene expression compared to an untreated control,PA2300 chic; [Ajoene] 40 μg/ml,−5.1 fold
same,fold change in gene expression compared to an untreated control,PA2300 chic; [Ajoene] 80 μg/ml,−24.6 fold
same,fold change in gene expression compared to an untreated control,PA4141; [Ajoene] 10 μg/ml,−1.0 fold
same,fold change in gene expression compared to an untreated control,PA4141; [Ajoene] 20 μg/ml,−1.1 fold
same,fold change in gene expression compared to an untreated control,PA4141; [Ajoene] 40 μg/ml,−1.3 fold
same,fold change in gene expression compared to an untreated control,PA4141; [Ajoene] 80 μg/ml,−5.4 fold
same,fold change in gene expression compared to an untreated control,PA2570 pa1L; [Ajoene] 10 μg/ml,−1.8 fold
same,fold change in gene expression compared to an untreated control,PA2570 pa1L; [Ajoene] 20 μg/ml,−2.0 fold
same,fold change in gene expression compared to an untreated control,PA2570 pa1L; [Ajoene] 40 μg/ml,−3.3 fold
same,fold change in gene expression compared to an untreated control,PA2570 pa1L; [Ajoene] 80 μg/ml,−6.3 fold
same,down regulation of lasB (DNA microarray),lasB,not more than 5 fold
same,fold change in gene expression compared to an untreated control,PA2146; [Ajoene] 10 μg/ml,−1.3 fold
same,fold change in gene expression compared to an untreated control,PA2146; [Ajoene] 20 μg/ml,−1.8 fold
same,fold change in gene expression compared to an untreated control,PA2146; [Ajoene] 40 μg/ml,−2.6 fold
same,fold change in gene expression compared to an untreated control,PA2146; [Ajoene] 80 μg/ml,−7.3 fold
same,fold change in gene expression compared to an untreated control,PA1871 lasA; [Ajoene] 10 μg/ml,−2.6 fold
same,fold change in gene expression compared to an untreated control,PA1871 lasA; [Ajoene] 20 μg/ml,−2.2 fold
same,fold change in gene expression compared to an untreated control,PA1871 lasA; [Ajoene] 40 μg/ml,−3.0 fold
same,fold change in gene expression compared to an untreated control,PA1871 lasA; [Ajoene] 80 μg/ml,−8.7 fold
same,growth inhibitory effects,P. aeruginosa cultures,do not exert any growth inhibitory effects
same,growth inhibition of Gram positive bacteria,Gram positive bacteria,strong growth inhibitor
